Consider five molecules from paper PMC12595484, “Optimizing multifunctional fluorescent ligands for intracellular labeling” (Proceedings of the National Academy of Sciences of the …, 2025).

Read-outs that look alike come from different tables or passages of the source.

A short description of series [1]: Determination of logD7.4 (miniaturized shake flask, octanol–PBS). Format: physicochemical. The procedure:
(§1) Detailed descriptions of the materials and methods are provided in the supporting information. Multifunctional rhodamine–HaloTag ligands (13HTL–16HTL and 18HTL–20HTL) were synthesized using palladium-catalyzed cross-coupling reactions to install 3-carboxyazetidine moieties onto rhodamine scaffolds, followed by amide bond formation with biotin–PEG2–NH2, (S)-JQ1–PEG2–NH2, or (R)-JQ1–PEG2–NH2. Spectroscopic properties (λabs, λem, ε, and Φf) were determined in 10 mM HEPES, pH 7.3. The lactone–zwitterion equilibrium constants (KL–Z) were measured in 1:1 (v/v) dioxane–water mixtures. Octanol–water distribution coefficients (logD7.4) were determined by miniaturized shake-flask partitioning experiments using PBS (pH 7.4) and 1-octanol. Cell culture experiments employed HEK293T, U2OS, and Neuro2a cells transfected with HaloTag fusion constructs and labeled with ligands (100 nM to 1 μM, 0.5 to 2 h at 37 °C), followed by fluorescence microscopy using confocal or lattice light-sheet microscopy. Affinity purification studies utilized streptavidin magnetic beads to capture biotin-labeled HaloTag conjugates, with analysis by SDS-PAGE and in-gel fluorescence detection. […]
Reported values are averages of at least two measurements.
Determination of logD7.4. The log of distribution coefficients at pH 7.4 was determined in octanol–phosphate-buffered saline (PBS) using a miniaturized shake flask setup described previously.6, 7 Briefly, 150 mL each of octanol and PBS pH 7.4 were stirred vigorously for 12–16 h. The layers were allowed to stand for at least 24 h for phase separation. The separated layers were collected and served as PBS saturated with octanol (PBS*) and octanol saturated with PBS (octanol*). Stock solutions (1 mM or 5 mM) of ligands were prepared in DMSO and diluted in PBS* to obtain 1 μM or 10 μM (3–5 mL) of the standard (std). This standard was used to prepare appropriate dilutions using octanol*, in triplicate, in 2-mL glass vials. The leftover standard was used to determine the standard concentration (Cstd). The vials were vortexed for 1 min and shaken horizontally at 700 rpm for 2 h. The vials were then shaken upright at 150 rpm for 2 h to allow the phases to separate. The octanol* layer was pipetted out, and the PBS* layer was used for further analyses. The concentrations of ligands in the standard and PBS* (CPBS*) were determined via fluorescence measurements of 200 μL of PBS* or std in 96-well plates on the Cytation 5 Multimode Plate Reader (BioTek). For Si-rhodamine containing ligands, 2–20 μL of […]
trifluoroacetic acid was added to each well of the 96-well plate prior to the fluorescence measurements. Reported values are averages of at least two measurements. The logD7.4 was obtained as described previously using equation 2: logD = log *’(" × r − 1. +)*+∗ / (2) […]
where Cstd is the standard concentration in PBS, CPBS* is the concentration in PBS after partitioning, r is the dilution factor of the standard solution, VPBS* is the volume of PBS used in the partitioning, and Voctanol* is the volume of octanol used in the partitioning.
Plasmid construction for mitochondria imaging and affinity purification. HaloTag, amplified from the pHTC HaloTag CMV-neo Vector (Promega; G7711) and monomeric-superfolder green fluorescent protein (msGFP; lab stock), was fused to the mitochondrial targeting signal from OMP25,8 interspacing flexible GS(GSS)4 linkers between each domain by PCR Splicing by Overlap Extension (SOE). This construct was subcloned into hSynapsin promoter bearing a copy of FUGW.9 FUGW was a gift from David Baltimore (Addgene plasmid # 14883; RRID:
Addgene_14883).10 This construct was designated as pF(UG) hSyn HaloTag-TEV-4×GS-msGFP- […]
HEK293T cell culture. HEK293T cells (ATCC) were passaged before 80% confluency by trypsinization (Corning; 25-053-CI) and trituration. The cell suspension was then plated on glass coverslips (Warner instruments; 64-0734, CS-18R17) coated with poly-D-lysine (Thermofisher; […]

Series [2] can be described thus: Spectroscopy of HaloTag ligands and HaloTag conjugates. The format is physicochemical. Particulars: 10 mM HEPES, pH 7.3. How it is done:
as §1
HaloTag protein purification. The bacterial expression vector pRSET-A (Invitrogen) was used to recombinantly express HaloTag (HT7; Promega).1 The soluble 6×His-Tagged HaloTag protein was affinity purified by immobilized metal affinity chromatography (IMAC) on a 5 -mL Fast Flow HiTrap Sepharose 6 column (Cytiva) with a 0–200 mM imidazole elution gradient using an Avant Protein Purification System (ÄKTA). A280 peak fractions were pooled, concentrated by a spin concentrator, and dialyzed 3× into tris-buffered saline (TBS). The amino acid sequence of HaloTag (HT7) expressed from pRSET-A is noted below; the annotated DNA and amino acid sequences […]
Spectroscopy of HaloTag ligands and HaloTag conjugates. Compounds 13HTL–16HTL, 18HTL, and 19HTL were prepared as stock solutions in DMSO and diluted such that the final DMSO […]
All measurements were taken at ambient temperature (22
± 2 °C). Absorption spectra were recorded on a Cary Model 100 spectrometer (Agilent) using 1-cm path length 1.0-mL quartz microcuvettes from Starna Cells. Fluorescence spectra were recorded on a Cary Eclipse fluorometer (Varian) using 1-cm path length 3.5-mL quartz cuvettes (Starna Cells). As before,2-4 HaloTag protein was used as a 100 μM solution in 1× TBS. HaloTag ligands 13HTL–16HTL, 18HTL, and 19HTL (5 μM) were dissolved in 10 mM HEPES, pH 7.3, containing 0.1 mg/mL CHAPS. An aliquot of HaloTag protein (1.5 equiv) was added, and the resulting mixture was incubated until a consistent absorbance signal was observed (60–120 min).
To measure the fold-increase of absorbance upon HaloTag binding, a “no HaloTag” control experiment was performed where an equivalent volume of TBS blank was added in place of the protein. Reported values for extinction coefficient (ε) are averages of at least two measurements. […]
Quantum yield determination. All reported absolute fluorescence quantum yield values (Φf) were measured in our laboratory under identical conditions using a Quantaurus-QY spectrometer (model C11374, Hamamatsu). This instrument uses an integrating sphere to determine photons absorbed and emitted by a sample. Measurements were performed using dilute samples (absorbance < 0.1), and self-absorption corrections were performed using the instrument software.5 Reported values are averages of at least two measurements.
Determination of logD7.4. The log of distribution coefficients at pH 7.4 was determined in octanol–phosphate-buffered saline (PBS) using a miniaturized shake flask setup described previously.6, 7 Briefly, 150 mL each of octanol and PBS pH 7.4 were stirred vigorously for 12–16 h. The layers were allowed to stand for at least 24 h for phase separation. The separated layers were collected and served as PBS saturated with octanol (PBS*) and octanol saturated with PBS […]

The mark [3] stands for this setting: 1-octanol/PBS, octanol–PBS pH 7.4, miniaturized shake flask, read-out: logD7.4.

For the molecule `O=C(CCCCC1SCC2NC(=O)NC21)NCCOCCOCCNC(=O)C1C[N+](=c2ccc3c(-c4cc(C(=O)NCCOCCOCCCCCCCl)ccc4C(=O)[O-])c4ccc(N5CCC5)cc4oc-3c2)C1` (stereo not shown) [13HTL, biotin–JF549–HaloTag ligand], the logD in series [1] (setting [3]) turned out to be 0.07. In addition, in series [2], the Φf came out at 0.90, the ε was 92,000 M^−1cm^−1, the λabs worked out at 552 nm and the λem stood at 575 nm.

In the case of `C[Si]1(C)C2=CC(=[N+]3CC(C(=O)NCCOCCOCCNC(=O)CCCC[C@@H]4SC[C@@H]5NC(=O)N[C@@H]54)C3)C=CC2=C(c2cc(C(=O)NCCOCCOCCCCCCCl)ccc2C(=O)[O-])c2ccc(N3CCC3)cc21` (stereo partly shown) [15HTL, biotin–JF646–HaloTag ligand], the logD in series [1] (pH 7.4) amounted to 3.06. Besides, in series [2], the Φf is 0.56, the ε is 34,000 M^−1cm^−1, the λabs was determined as 647 nm and the λem was found to be 666 nm.

In the case of `CC1(C)C2=CC(=[N+]3CC(C(=O)NCCOCCOCCNC(=O)CCCC[C@@H]4SC[C@@H]5NC(=O)N[C@@H]54)C3)C=CC2=C(c2cc(C(=O)NCCOCCOCCCCCCCl)ccc2C(=O)[O-])c2ccc(N3CCC3)cc21` (stereo partly shown) [14HTL, biotin–JF608–HaloTag ligand], the logD in series [1] (setting [3]) turned out to be 2.63. In series [2], the Φf is given as 0.65, the ε is recorded as 92,300 M^−1cm^−1, the λabs came out at 610 nm and the λem was determined as 634 nm.

In series [1] (pH 7.4), `C[Si]1(C)C2=CC(=[N+]3CC(F)(C(=O)NCCOCCOCCNC(=O)CCCC[C@@H]4SC[C@@H]5NC(=O)N[C@@H]54)C3)C=CC2=C(c2cc(C(=O)NCCOCCOCCCCCCCl)ccc2C(=O)[O-])c2ccc(N3CC(F)C3)cc21` (stereo partly shown) [16HTL, biotin–JF635–HaloTag ligand] yielded a logD of 3.6. Further, in series [2], the Φf amounted to 0.60, the ε is listed as 2,900 M^−1cm^−1, the λabs stood at 636 nm and the λem is 655 nm.

In series [1] (pH 7.4), `C[Si]1(C)c2cc(N3CC(F)C3)ccc2C2(OC(=O)c3ccc(C(=O)NCCOCCOCCCCCCCl)cc32)c2ccc(N3CC(F)C3)cc21` [6HTL, JF635–HaloTag ligand, reference compound] gave a logD of 3.82. Besides, in series [2], the Φf worked out at 0.60, the ε is ~ 400 M^−1cm^−1, the λabs stood at 640 nm and the λem turned out to be 658 nm.
